Where only a bound is given, the exact number is not on record here.

The source of these data is patent US4440772A, “Acid addition salts of dextrorotatory ergot alkaloids, a process for the preparation thereof as well as their use as medicines” (priority 1978, dated 1984).

The test system of data set [1] is smooth muscles of blood vessels. Nature of the data set: effect on blood pressure drop in rats with cut spinal cord. The data set is classed as in vivo, rats (variety Wistar). The settings on record: for long-duration hypertension (effect in words): 4.5 mg/kg of body weight; for vasoconstrictory effect: contraction of smooth muscles of blood vessels. An excerpt:
Rats (variety Wistar) in urethane narcosis were cut their spinal cord in the region of the second cervical vertebra and connected to an artificial breathing apparatus (B. Melsungen). By this intervention the central regulation of blood pressure was eliminated. In so treated animals blood pressure dropped for about 50 mm Hg. The experiment was supposed to show whether the examined substances directly affected the smooth muscles of blood vessels.

The subject of data set [2] is spontaneously hypertensive rats. Nature of the data set: effect on arterial pressure of spontaneously hypertensive rats. The data set is classed as in vivo, rats (variety Okamoto Aoki F32). As to the method:
For the experiment groups of 10 spontaneously hypertensive rats (variety Okamoto Aoki F32) of both sexes, weighing from 200 to 250 g, were used. The acid addition salts of said dextrorotatory ergot alkaloids were administered intraperitoneally in doses of 50 mcg/kg of body weight and systolic blood pressure was measured on the rats' tails by means of plethysmographic method (K. Okamoto and K. Aoki, Jap. Circulat. J. 27, 1963, 282).

The subject of data set [3] is isolated heart of a guinea pig. Nature of the data set: effect on isolated heart of a guinea pig, modified Langendorff's method. The text has this:
The effect of dextrorotatory ergot alkaloids according to the invention on heart in vitro was examined on isolated heart of a guinea pig by the modified Langendorff's method (Zalar et al., Poll. Chim. Farmac. 114, 1975, 146). Alkaloids were infused by an apparatus for slow infusion (B. Melsungen).

The test system of a further data set is heart in situ. Put plainly: effect on heart in situ in rats. Particulars: slow infusion. The data set is classed as in vivo. On the procedure:
The effect of ergotaminine, ergosinine and ergocrystinine on heart in situ was examined in rats. The thorax of narcotized rats (0.7 ml of 25% urethane solution per 100 g of the body weight, administered subcutaneously) was opened. The heart was placed into a special basket with a balloon, which was connected over a polyethylene cannula to a transducer "Mini Pressure Transducer--Beckmann" and dynograph Beckmann. As the left wall of the ventricle leant against the balloon, the contraction of the ventricle could be recorded. Over a tracheal tube the rats were connected to an artificial breathing apparatus.

In data set [4] the test system is arrhythmias induced by adrenalin. Nature of the data set: effect on arrhythmia induced by adrenalin. Particulars: guinea pigs. The data set is classed as in vivo. On the procedure:
For experiments, guinea pigs of both sexes, weighing from 400 to 550 g, were used. The narcotized animals (urethane 1.6 g/kg of body weight, intraperitoneally) were at first intravenously administered adrenalin (0.02 mg/kg) and then dextrorotatory ergot alkaloids. 1 hour and 1.5 hours after the administration of dextrorotatory ergot alkaloids, adrenalin was again administered intravenously (0.02 mg/kg) and the presence as well as duration of arrhythmias was ascertained.

The test system of data set [5] is alpha-adrenergic receivers of the dilatating pupil muscle. Nature of the data set: effect on the function of the pupil (mydriatic effect, Polewka's method). Particulars: 5 mg/kg intravenously, mouse. Format: in vivo. As to the method: The phenomenon of mydriasis induced by ergot alkaloids results from the stimulation of alpha-adrenergic receivers of the dilatating pupil muscle (Z. Votava et al., Arch. int. Pharmacodin. 45, 1958, 114).
The mydriatic effect of dextrorotatory ergot alkaloids administered intravenously was determined with a monocular measuring magnifying glass by Polewka's method (A. R. Turner, Screening Methods in Pharmacology, 1965, p. 174 ff.).
The size of the pupil was measured at first before the administration of the substance and then 15, 30 and 60 minutes after intravenous administration of alkaloids into the mouse tail (dose 5 mg/kg of body weight).

For data set [6] the following is noted: established for known ergot alkaloids; cited from earlier work.
For data set [7] the following is noted: literature comparison; cited from earlier work.
Data set [8] can be described thus: acute toxicity (LD50), intraperitoneal administration. Particulars: mouse, in vivo, ip, male mice, 24 hours after administration. On the procedure:
The volume of injected solution was 0.01 ml/g of body weight. In the following Table I acute toxicity of dextrorotatory ergot alkaloids in comparison with levorotatory ergot alkaloids 24 hours after the intraperitoneal administration is given.

Setting [9] is: spontaneously hypertensive rats, 50 mcg/kg intraperitoneally.

For the molecule `CC(C)C[C@H]1C(=O)N2CCC[C@H]2[C@]2(O)O[C@@](C)(NC(=O)[C@H]3C=C4c5cccc6[nH]cc(c56)C[C@H]4N(C)C3)C(=O)N12` [ergosinine], in [1], the “long-duration hypertension (effect in words)” value is listed as “The same effect” and the vasoconstrictory effect result is given as “vasoconstrictory effect”. The “effect on systolic blood pressure (in words)” value in data set [2] (setting [9]) is listed as “strongest effect”. Moreover, in data set [3] (isolated heart of guinea pig), the “effect on isolated heart (in words)” value was “qualitatively similar to that of ergotamine, ergosine and dihydroergotamine”; the “effect on the strength of heart contraction (in words)” value is “quantitatively greater effect on the strength of heart contraction”. Further, in the data set on heart in situ (250 mcg/kg intravenously), the “increase of the strength of heart contraction” value (from here on “increase … of heart contraction”) was determined as 15%. In the data set on heart in situ (300 mcg/kg intravenously), the “increase … of heart contraction” value stood at 30%. Also, the “effect on duration of arrhythmia (in words)” value in data set [4] (arrhythmias induced by adrenalin) is reported as “most efficiently shortened”. The “mydriatic effect (in words)” value in [5] was “strongest mydriatic effect”.
Take `CC(C)[C@@]1(NC(=O)[C@H]2C=C3c4cccc5[nH]cc(c45)C[C@H]3N(C)C2)O[C@@]2(O)[C@@H]3CCCN3C(=O)[C@H](Cc3ccccc3)N2C1=O` [ergocristinine]: in data set [1], the “long-duration hypertension (effect in words)” value is “no effect”. Also, the “increase … of heart contraction” value in the data set on heart in situ (250 mcg/kg intravenously) was found to be 15%; in the data set with heart in situ (300 mcg/kg intravenously), 30%.
In the case of `CN1C[C@H](C(=O)N[C@]2(C)O[C@@]3(O)[C@@H]4CCCN4C(=O)[C@H](Cc4ccccc4)N3C2=O)C=C2c3cccc4[nH]cc(c34)C[C@H]21` [ergotamine], the “heart action (bradycardia)” value in [6] was “bradycardia”.
`CN1C[C@H](C(=O)N[C@]2(C)O[C@@]3(O)[C@@H]4CCCN4C(=O)[C@H](Cc4ccccc4)N3C2=O)C[C@@H]2c3cccc4[nH]cc(c34)C[C@H]21` [dihydroergotamine]: the “heart action (bradycardia)” value in data set [6] was “bradycardia”. Further, the vasoconstrictory effect entry in data set [7] was “vasoconstrictory effect”.
For `CN1C[C@@H](C(=O)N[C@]2(C)O[C@@]3(O)[C@@H]4CCCN4C(=O)[C@H](Cc4ccccc4)N3C2=O)C=C2c3cccc4[nH]cc(c34)C[C@H]21` [ergotaminine], in data set [1] (acid addition salts, 1.5 mg/kg of body weight), the “duration of long-duration hypertension” value is recorded as “more than 60 minutes”. In addition, the vasoconstrictory effect result in [1] is “vasoconstrictory effect”. For the same molecule, the “effect on systolic blood pressure (in words)” value in data set [2] (setting [9]) was “strongest effect”. Also, the “effect on isolated heart (in words)” value in [3] (isolated heart of guinea pig) was “qualitatively similar to that of ergotamine, ergosine and dihydroergotamine”. Moreover, the “increase … of heart contraction” value is listed as 15% in the data set with heart in situ (250 mcg/kg intravenously) and 30% in the data set with heart in situ (300 mcg/kg intravenously).
As to `CC(C)[C@@]1(NC(=O)[C@H]2C=C3c4cccc5[nH]cc(c45)C[C@H]3N(C)C2)O[C@@]2(O)[C@@H]3CCCN3C(=O)[C@H](Cc3ccccc3)N2C1=O` [ergocristinine methanesulfonate, Ergocristinine methanesulfonate], the median lethal dose (LD50) at 24 h in [8] is > 600 mg/kg. The Systolic blood pressure in data set [2] (control, spontaneously hypertensive rats) amounted to 187 mm Hg; in [2] (day 2, 50 mcg/kg intraperitoneally) it was 183 mm Hg; in [2] (day 4, 50 mcg/kg intraperitoneally) it was 177 mm Hg; in data set [2] (day 6, 50 mcg/kg intraperitoneally) it was 169 mm Hg; in [2] (day 8, 50 mcg/kg intraperitoneally) it was 160 mm Hg; in data set [2] (day 10, 50 mcg/kg intraperitoneally) it was 152 mm Hg. In data set [3] (Cavia porcellus, dose 4.98 mcg/g of heart, read-out: (+)inotropic (maximum)), the activation at 4.98 µg/g was 9%. Moreover, in [3] (Cavia porcellus, dose 4.98 mcg/g of heart, read-out: (-)chronotropic (maximum)), the inhibition at 4.98 µg/g is 12%. The “Shortening of arrhythmia duration” value in [4] (2.0 mg/kg intraperitoneally, adrenalin 0.02 mg/kg intravenously) is on record as 32 % of control. In addition, the “The increase of pupil widening in comparison with the control” value was 48.7% in [5] (after 15 min.), 10.3% in data set [5] (after 30 min.) and 2.5% in [5] (after 60 min.).

What is called LD50 is the dose at which mortality reaches 50%. Lower therefore signals greater toxicity.
